According to patent publication US20150018301A1, “LRRK-2-Mediated Neuronal Toxicity” (THE JOHNS HOPKINS UNIVERSITY, priority 2009, published 2015):

Key:
[1] = test system: rat primary cortical neuronal cultures transfected with G2019S LRRK2; test: LRRK2-induced neuronal toxicity in primary cortical neuronal cultures (neurite shortening, TUNEL); format: cell-based; conditions: 0.5 μM
Description: Representative photomicrographs of each experimental group. LRRK2 and eGFP constructs were combined in a molar ratio of 10:1, respectively, and transfected by using of Lipofectamine 2000 (Invitrogen) at DIV (day in vitro) 14 into rat primary cortical neuronal cultures. Compounds (0.5 μM) were administrated at the time of transfection and continued until toxicity assessments. On DIV 16, images were collected on a Zeiss Automatic stage with Axiovision 6.0. (a) Low magnified photomicrographs; (b and c) High magnified photomicrographs. Scale bar=50 μm (a) and 10 μm (b and c);
Primary cortical neuronal cultures were prepared from gestational day 15 fetal rats as previously described. Gonzalez-Zulueta, M., et al. Manganese superoxide dismutase protects nNOS neurons from NMDA and nitric oxide-mediated neurotoxicity. J Neurosci 18, 2040-2055 (1998). All procedures used in this study were approved by the Johns Hopkins Medical Institute Animal Care Committee. Cell viability assays and DNA fragmentation (TUNEL assay) were performed as previously described. Smith, W. W., et al. Kinase activity of mutant LRRK2 mediates neuronal toxicity. Nat Neurosci 9, 1231-1233 (2006); West, A. B., et al. Parkinson's disease-associated mutations in LRRK2 link enhanced GTP-binding and kinase activities to neuronal toxicity. Hum Mol Genet 16, 223-232 (2007). The cortex was dissected, incubated for 15 min in 0.027% trypsin, and then transferred to modified Eagle's medium (MEM)/10% horse serum/10% fetal bovine serum/2 mM glutamine followed by trituration. Dissociated cells were plated at a density of 3-4×10^5 cells per well in polyornithine-coated plates. After 4 days the cells were treated with 10 μg of 5-fluoro-2′-deoxyuridine to prevent proliferation of nonneuronal cells. Cells were maintained in MEM/5% horse serum/2 mM glutamine in 8% CO2 incubator. The medium was changed twice weekly. For assessment of LRRK2-mediated neuronal injury, LRRK2 and eGFP constructs were combined in a molar ratio of 10:1, respectively, and transfected into neurons with Lipofectamine 2000 (Invitrogen) at DIV (day in vitro) 14. On DIV 16, images were collected on a Zeiss Automatic stage with Axiovision 6.0. Viable neurons were defined as having at least one smooth extension (neurite) with twice the length of the cell body. The percentage of eGFP-positive injured neurons in each experimental group relative to those neurons transfected with eGFP was calculated.

[2] = molecular target: T1, LRRK1 WT (Homo sapiens, UniProt Q38SD2); test: In vitro kinase assay: LRRK1-mediated MBP phosphorylation; format: biochemical
T1 sequence (Q38SD2 whole entry): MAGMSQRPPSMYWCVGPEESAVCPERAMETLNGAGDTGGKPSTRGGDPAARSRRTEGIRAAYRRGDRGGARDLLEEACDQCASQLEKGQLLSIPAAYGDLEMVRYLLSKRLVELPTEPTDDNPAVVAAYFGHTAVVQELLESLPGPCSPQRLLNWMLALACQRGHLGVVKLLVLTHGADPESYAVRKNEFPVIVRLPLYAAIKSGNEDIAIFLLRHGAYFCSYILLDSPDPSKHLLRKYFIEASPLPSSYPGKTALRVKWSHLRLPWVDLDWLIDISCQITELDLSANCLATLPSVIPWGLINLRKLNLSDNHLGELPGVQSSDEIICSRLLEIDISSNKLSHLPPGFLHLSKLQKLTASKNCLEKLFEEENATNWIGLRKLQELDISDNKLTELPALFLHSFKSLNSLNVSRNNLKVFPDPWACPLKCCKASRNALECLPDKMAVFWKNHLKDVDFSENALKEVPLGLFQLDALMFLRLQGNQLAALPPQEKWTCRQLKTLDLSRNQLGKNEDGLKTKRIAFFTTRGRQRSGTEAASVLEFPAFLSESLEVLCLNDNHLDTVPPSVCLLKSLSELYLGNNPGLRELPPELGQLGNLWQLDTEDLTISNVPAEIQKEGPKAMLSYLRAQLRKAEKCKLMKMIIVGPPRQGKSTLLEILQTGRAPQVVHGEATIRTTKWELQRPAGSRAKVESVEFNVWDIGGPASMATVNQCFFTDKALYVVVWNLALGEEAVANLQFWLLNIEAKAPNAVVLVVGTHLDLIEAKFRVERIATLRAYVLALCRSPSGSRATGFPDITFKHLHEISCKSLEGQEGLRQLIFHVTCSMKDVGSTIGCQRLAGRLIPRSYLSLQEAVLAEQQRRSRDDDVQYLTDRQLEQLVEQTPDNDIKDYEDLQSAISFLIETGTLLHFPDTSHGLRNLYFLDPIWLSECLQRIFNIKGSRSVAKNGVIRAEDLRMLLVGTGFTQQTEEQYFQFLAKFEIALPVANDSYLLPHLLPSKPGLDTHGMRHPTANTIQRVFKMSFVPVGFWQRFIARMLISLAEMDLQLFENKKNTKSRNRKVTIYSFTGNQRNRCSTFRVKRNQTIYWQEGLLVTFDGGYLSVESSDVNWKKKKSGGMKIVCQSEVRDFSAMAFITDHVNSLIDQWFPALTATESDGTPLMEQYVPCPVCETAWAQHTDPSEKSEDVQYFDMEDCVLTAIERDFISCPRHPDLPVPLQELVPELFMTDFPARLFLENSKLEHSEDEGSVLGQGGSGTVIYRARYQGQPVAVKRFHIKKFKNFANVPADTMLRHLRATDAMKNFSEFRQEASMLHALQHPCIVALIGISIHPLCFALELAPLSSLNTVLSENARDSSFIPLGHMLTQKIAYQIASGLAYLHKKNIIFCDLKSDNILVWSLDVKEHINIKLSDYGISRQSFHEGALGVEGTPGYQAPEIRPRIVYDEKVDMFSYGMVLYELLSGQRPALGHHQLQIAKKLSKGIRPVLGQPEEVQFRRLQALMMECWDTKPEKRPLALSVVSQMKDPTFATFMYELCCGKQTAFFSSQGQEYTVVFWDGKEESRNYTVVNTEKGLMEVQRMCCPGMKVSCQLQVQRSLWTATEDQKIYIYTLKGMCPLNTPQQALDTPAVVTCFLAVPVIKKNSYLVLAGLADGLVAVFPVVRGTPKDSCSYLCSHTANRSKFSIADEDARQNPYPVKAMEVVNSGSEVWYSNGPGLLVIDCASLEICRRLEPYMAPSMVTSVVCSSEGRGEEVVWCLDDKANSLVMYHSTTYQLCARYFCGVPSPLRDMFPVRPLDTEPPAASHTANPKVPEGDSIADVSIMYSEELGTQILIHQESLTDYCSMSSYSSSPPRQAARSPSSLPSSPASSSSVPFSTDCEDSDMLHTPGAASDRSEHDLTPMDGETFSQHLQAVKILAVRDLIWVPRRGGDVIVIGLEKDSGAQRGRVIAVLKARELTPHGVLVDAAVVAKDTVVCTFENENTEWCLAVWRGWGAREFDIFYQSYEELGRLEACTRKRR

[3] = test system: C. elegans expressing LRRK2 G2019S in DA neurons; test: Transgenic nematode model of LRRK2 G2019S-induced DA neurodegeneration; format: in vivo, Caenorhabditis elegans
Description: Nematodes were maintained following the standard procedures. Brenner, S., 771 GENETICS 71-94 (1974). Isogenic worm strains expressing LRRK2, G2019S, UAXX [baInlX; Pdat-1::LRRK2 G2019S, Pdat-1::gfp] were generated via microinjection, integrated into the genome and out-crossed three times. Age-synchronized worms were obtained by treating gravid adults with 2% sodium hypochlorite and 0.5M NaOH to isolate embryos. Lewis, J. A., 48 METHODS CELL BIOL. 3-29 (1995). These embryos were treated with indicated concentrations of LRRK2 kinase inhibitors, which were dissolved in 1% DSMO, for 24 h. at 20° C. with gentle shaking. The worms were then washed and transferred into NGM plates seeded with OP50 bacteria, and incubated as 20° C. The six anterior DA neurons (4 CEP and 2 ADE neurons) of 30 animals/trial were examined for neurodegeneration when the animals were 7 days old. A total of 90 animals for each treatment were analyzed (3 trials of 30 animals/trial). […] See Hamamichi et al., 105(2) PROC. NATL. ACAD. SCI. USA 728-33 (2008); and Cao et al, 25 J. NEUROSCI. 3801-12 (2005). For each trial, 30 worms were transferred into a 2% agarose pad, immobilized with 2 mM levamisole, and analyzed using Nikon Eclipse E800 epifluorescence microscope equipped with Endow GFP HYQ filter cube (Chrom Technology, Rockingham, Vt.). Images were captured with a Cool Snap CCD camera (Photometrics, Tucson, Ariz.) driven by MetaMorph software (Universal Imaging, West Chester, Pa.).
To determine whether the LRRK2 kinase inhibitors protect against LRRK2-induced neurodegeneration in vivo, the LRRK2 kinase inhibitors were tested in the C. elegans model of LRRK2 G2019S-induced neurodegeneration described above. The DA transporter (dat-1) was used to direct expression of LRRK2 G2019S in DA neurons.

[4] = molecular target: T1, LRRK1 WT; test: In vitro kinase assay: LRRK1 autophosphorylation; format: biochemical
[5] = molecular target: G2019S LRRK2 (Homo sapiens, UniProt Q5S007, G2019S); test: In vitro kinase assay: LRRK2-mediated phosphorylation of 4E-BP1; format: biochemical
Sequence of G2019S LRRK2 (Q5S007 whole entry G2019S): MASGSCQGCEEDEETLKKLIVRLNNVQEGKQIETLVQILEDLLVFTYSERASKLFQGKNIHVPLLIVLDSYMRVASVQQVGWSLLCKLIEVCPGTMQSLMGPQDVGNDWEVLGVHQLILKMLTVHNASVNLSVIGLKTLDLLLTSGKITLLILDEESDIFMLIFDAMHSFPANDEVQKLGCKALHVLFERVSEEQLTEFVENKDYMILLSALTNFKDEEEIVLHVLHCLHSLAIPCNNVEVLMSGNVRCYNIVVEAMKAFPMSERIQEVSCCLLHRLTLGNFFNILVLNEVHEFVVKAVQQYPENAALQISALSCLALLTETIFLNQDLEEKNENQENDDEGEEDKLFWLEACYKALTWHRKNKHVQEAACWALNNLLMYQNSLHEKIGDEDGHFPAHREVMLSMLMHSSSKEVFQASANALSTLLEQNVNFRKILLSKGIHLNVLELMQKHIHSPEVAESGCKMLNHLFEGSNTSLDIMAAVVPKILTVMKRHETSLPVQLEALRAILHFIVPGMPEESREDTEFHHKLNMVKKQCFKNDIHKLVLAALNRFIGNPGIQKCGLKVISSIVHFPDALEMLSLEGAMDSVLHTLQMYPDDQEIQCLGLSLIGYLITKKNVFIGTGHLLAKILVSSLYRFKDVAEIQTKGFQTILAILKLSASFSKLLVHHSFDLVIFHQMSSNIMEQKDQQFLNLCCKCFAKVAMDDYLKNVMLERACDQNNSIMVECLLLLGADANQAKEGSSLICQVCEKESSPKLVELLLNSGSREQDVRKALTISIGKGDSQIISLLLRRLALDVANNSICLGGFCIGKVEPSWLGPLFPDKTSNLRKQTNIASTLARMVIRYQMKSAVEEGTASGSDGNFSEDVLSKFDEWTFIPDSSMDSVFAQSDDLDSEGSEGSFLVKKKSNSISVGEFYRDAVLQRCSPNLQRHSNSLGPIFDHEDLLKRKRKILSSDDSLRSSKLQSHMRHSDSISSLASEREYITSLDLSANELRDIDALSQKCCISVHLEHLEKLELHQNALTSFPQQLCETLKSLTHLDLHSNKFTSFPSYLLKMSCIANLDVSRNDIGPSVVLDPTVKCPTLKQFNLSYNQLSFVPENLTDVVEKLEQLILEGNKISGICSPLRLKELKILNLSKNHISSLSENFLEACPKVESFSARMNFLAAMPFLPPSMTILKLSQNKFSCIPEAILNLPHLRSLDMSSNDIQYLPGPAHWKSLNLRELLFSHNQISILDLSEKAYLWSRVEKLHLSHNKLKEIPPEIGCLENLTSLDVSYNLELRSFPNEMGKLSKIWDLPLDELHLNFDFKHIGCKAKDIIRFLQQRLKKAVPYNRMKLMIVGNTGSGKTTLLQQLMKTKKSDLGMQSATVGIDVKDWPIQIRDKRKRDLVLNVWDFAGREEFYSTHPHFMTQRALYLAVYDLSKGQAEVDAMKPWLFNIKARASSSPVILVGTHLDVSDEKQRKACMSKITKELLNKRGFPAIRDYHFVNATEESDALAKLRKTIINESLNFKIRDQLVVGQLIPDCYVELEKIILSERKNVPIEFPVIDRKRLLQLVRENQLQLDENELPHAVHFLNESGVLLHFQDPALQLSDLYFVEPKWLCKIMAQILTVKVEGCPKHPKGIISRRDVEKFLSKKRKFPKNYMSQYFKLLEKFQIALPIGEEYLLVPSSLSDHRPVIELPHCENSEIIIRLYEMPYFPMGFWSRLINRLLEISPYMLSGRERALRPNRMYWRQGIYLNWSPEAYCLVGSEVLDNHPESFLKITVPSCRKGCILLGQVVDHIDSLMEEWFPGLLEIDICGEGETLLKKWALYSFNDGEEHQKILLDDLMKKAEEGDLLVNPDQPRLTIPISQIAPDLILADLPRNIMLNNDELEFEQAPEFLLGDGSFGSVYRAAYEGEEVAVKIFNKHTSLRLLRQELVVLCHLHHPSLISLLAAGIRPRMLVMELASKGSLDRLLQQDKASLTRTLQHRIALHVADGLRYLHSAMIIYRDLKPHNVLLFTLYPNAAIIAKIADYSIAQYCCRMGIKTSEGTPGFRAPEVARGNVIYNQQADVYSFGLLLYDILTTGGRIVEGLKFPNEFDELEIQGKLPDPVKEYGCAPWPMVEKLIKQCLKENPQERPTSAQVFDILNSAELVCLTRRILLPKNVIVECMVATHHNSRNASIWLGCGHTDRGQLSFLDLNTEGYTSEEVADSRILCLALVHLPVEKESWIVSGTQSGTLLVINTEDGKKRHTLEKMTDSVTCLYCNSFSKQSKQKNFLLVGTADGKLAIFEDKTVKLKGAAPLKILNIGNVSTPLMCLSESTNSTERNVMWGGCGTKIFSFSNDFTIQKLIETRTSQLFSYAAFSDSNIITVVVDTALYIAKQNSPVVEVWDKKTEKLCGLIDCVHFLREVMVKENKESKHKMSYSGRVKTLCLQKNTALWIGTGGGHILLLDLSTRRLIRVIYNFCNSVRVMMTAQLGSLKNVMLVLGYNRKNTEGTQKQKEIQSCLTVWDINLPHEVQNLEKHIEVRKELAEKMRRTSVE
Description: The GST-4E-BP1 expressing vector was generated using the Invitrogen Gateway LR Clonase System. Briefly, an entry clone containing the 4E-BP1 sequence was reacted with the destination vector, pDEST-15 in the presence of the LR clonase mixture. After the clonase reaction, the mixture was transformed into One Shot BL21 chemically competent E. coli. The transformed cells were grown on ampicillin containing LB agar plate for one day at 37° C. Colonies containing GST-4E-BP1 were isolated. For protein induction, 100 μM IPTG was added to 100 mL culture and incubated for 3 h at 30° C. After IPTG incubation, cells were collected by centrifugation at 3,000×g for 15 min. The pellet was lysed with sonication in the presence of lysis butter containing 0.5% TX-100, 50 mM Tris-HCl (pH 8.0), 100 mM NaCl, 0.5 mM EGTA, 5 mM MgCl2, 2 mM DTT, and complete protease inhibitors. The lysate was centrifugated at 15,000×g for 15 min and the supernatant was incubated with GSH-sepharose beads for 2 h at 4° C. After incubation, the beads were washed with PBS containing an additional 150 mM NaCl and 0.1% TX-100 three times. The protein was eluted with elution buffer containing Hepes (pH 8.0), 150 mM NaCl, 30% glycerol, and 30 mM glutathione. The eluted proteins were stored at −80° C.
(§1) The in vitro kinase assay was performed as previously described. West, A. B. et al. Parkinson's disease-associated mutations in leucine-rich repeat kinase 2 augment kinase activity. Proc Natl Acad Sci USA 102, 16842-16847 (2005). Recombinant LRRK2 and MBP or CST-4E-BP1 were combined before the kinase reaction. LRRK2 autophosphorylation is LRRK2 itself phosphorylation and MBP or GST-4E-BP1 phosphorylation is induced by LRRK2. After the kinase reaction, combined LRRK2 and MBP or GST-4E-BP1 were loaded on SDSPAGE and phosphorylated LRRK2 and MBP or GST-4E-BP1 could be detected separately an a single gel. Recombinant proteins and inhibitors were incubated at 30° C. in kinase assay buffer containing 20 mM Hepes (pH 7.4), 5 mM EGTA, and 20 mM β-glycerol phosphate. 0.5 μg MBP (Upstate) or 0.5 μg GST-4B-BP1, 50 μM ATP (Sigma), 20 mM MgCl2, and 1 μCi [γ-32P] ATP (PerkinElmer) was added after 5 min. The reaction was performed at 30° C. to reduce non-specific 32P incorporation for 15 min and terminated by the addition of 5×Laemmili sample buffer. The reactions were then heated at 70° C. for 10 min and resolved by 12% SDS-PAGE. Gels were stained by coomassie brilliant blue after fixation with 10% acetic acid and 40% methanol and then exposed to a Phosphoimager. Data were analyzed by ImageQuant 6.0 software.

[6] = from literature; cited from earlier work
[7] = molecular target: T2, LRRK2 G2019S (Homo sapiens, UniProt Q5S007, G2019S); test: In vitro kinase assay: G2019S LRRK2 autophosphorylation; format: biochemical; conditions: dose-response
T2 sequence (Q5S007 whole entry G2019S): as above
Description: (§2) Transfection was performed by using Fugene HD reagent (Roche Applied Science) according to the manufacturer's instruction. For purification of recombinant LRRK1 and LRRK2 proteins, ACTA Purifier (GE Healthcare) FPLC system was used.
(§3) Resulting lysates were rotated at 4° C. for 30 min followed by centrifugation at 20,000×g for 15 min. The supernatants were injected into a GSTrap FF column pre-equilibrated with PBS at 0.5. mL/min flow after filtration using a 0.2 μm syringe filter (Corning). The bound proteins were eluted with buffer containing 10 mM GSH (Sigma), 150 mM NaCl, and 50 mM Tris-HCl (pH 8.0).
as §1, with “West, A. B. et al. Parkinson's disease-associated mutations in leucine-rich repeat kinase 2 augment kinase activity. Proc Natl Acad Sci USA 102, 16842-16847 (2005).” left out, “The reactions were then heated at 70° C. for 10 min and resolved by 12% SDS-PAGE.” left out
(§4) To calculate the IC50 value, a dose-response curve was constructed and non-linear regression analysis using the equation for a sigmoid plot.

[8] = molecular target: T2, LRRK2 G2019S; test: In vitro kinase assay: G2019S LRRK2-mediated MBP phosphorylation; format: biochemical; conditions: dose-response
Description: as §2, §3
as §1, with “West, A. B. et al. Parkinson's disease-associated mutations in leucine-rich repeat kinase 2 augment kinase activity. Proc Natl Acad Sci USA 102, 16842-16847 (2005).” left out, “The reactions were then heated at 70° C. for 10 min and resolved by 12% SDS-PAGE.” left out
as §4

[9] = molecular target: T3, LRRK2 WT (Homo sapiens, UniProt Q5S007); test: In vitro kinase assay: LRRK2 autophosphorylation; format: biochemical; conditions: dose-response
T3 sequence (Q5S007 whole entry): as the sequence (Q5S007 whole entry G2019S) above, with S2019G counted along it

[10] = molecular target: T3, LRRK2 WT; test: In vitro kinase assay: LRRK2-mediated MBP phosphorylation; format: biochemical; conditions: dose-response

## CNC(=O)c1cc(Oc2ccc(NC(=O)Nc3ccc(Cl)c(C(F)(F)F)c3)cc2)ccn1 [Sorafenib]
[1]
  G2019S LRRK2 toxicity: completely protected
[2]
  effect on LRRK1 MBP phosphorylation: minimal to no effect
[2]; Table 3, mean of three experiments
  IC50: 13.8 µM
[3]; 25 μM, 7-day-old worms, n=90, 48% with 1% DMSO
  worms with wild-type DA neurons (4 CEP and 2 ADE): 62%
[3]; 7 day-old worms
  rescue of DA neurodegeneration: protect worms from neurodegeneration
[4]
  effect on LRRK1 autophosphorylation: minimal to no effect

## O=C1Nc2ccccc2/C1=C1/Nc2ccccc2C1=O [Inhibitor 69, Indirubin]
[5]
  LRRK2-mediated phosphorylation of 4E-BP1: did not inhibit
[6]
  crossing of the blood-brain barrier: known to cross the blood-brain barrier
[1]
  G2019S LRRK2 toxicity: failed to inhibit
[7]
  effect on G2019S LRRK2 autophosphorylation: no effect
[2]
  effect on LRRK1 MBP phosphorylation: no effect
[8]
  effect on G2019S LRRK2 MBP phosphorylation: no effect
[4]
  effect on LRRK1 autophosphorylation: no effect
[9]
  effect on WT LRRK2 autophosphorylation: no effect
[10]
  effect on WT LRRK2 MBP phosphorylation: no effect
